Key:
Male mongrel dogs = assay: Assay XII: acute i.v. effects on mean arterial pressure and renal blood flow in anesthetized dogs; assay type: in vivo, dog
Procedure: This experiment was run to determine the renal selectivity of conjugate of the invention in dogs. Male mongrel dogs (15-20 kg/n=8; Antech, Inc., Barnhard, Mo.) were anesthetized with sodium pentobarbital (30 mg/kg as i.v. bolus, and 4-6 mg/kg/hr infusion) and catheters were placed in the femoral veins for compound injection or pentobarbital infusion, and the femoral artery for arterial pressure recording. An electromagnetic flow probe (Carolina Medical Electronics, Inc., King, N.C.) was placed around the left renal artery for measurement of renal blood flow. Renal blood flow and arterial pressure were recorded on a Gould chart recorder. After surgery, 20-30 minutes were allowed for variables to stabilize. […] Variables were monitored for the next three hours. Results are shown in Table XXXIV and FIGS. 14 and 15.

male SHR = assay: Assay XIII: renal blood flow experiments in anesthetized SHR (renal denervation, bulbocapnine); assay type: in vivo, rat; details: for Mean arterial pressure / Renal Blood Flow: conjugate alone
Procedure: This experiment was run to determine the roles of the renal sympathetic nerves and dopamine in the antihypertensive response to Ex. #859. For renal blood flow experiments, male SHR (11-13 weeks of age; Harlan Sprague-Dawley, Inc., Indianapolis, Ind.) were anesthetized (Inactin, 100 mg/kg, i.p.), catheters were implanted in a jugular vein and carotid artery, and an electromagnetic flow probe (Carolina Medical Electronics, Inc., King, N.C.) was placed on the left renal artery. Care was taken not to damage the renal nerves. A tracheal catheter maintained airway patency. The SHR were placed on a heated pad to maintain normal body temperature (Harvard Apparatus, South Natick, Mass.). In one group of SHR (n=6) surgical renal denervation was performed (prior to implanting the flow probe) through a left flank incision by surgically stripping the renal artery and vein of adventitia and cutting all visible renal nerve bundles under a dissection microscope (×25) and coating the vessels with a solution of 10% phenol in 95% ethanol, as previously described (9,10). In a second group of SHR (n=6) bulbocapnine (a dopamine receptor antagonist) was infused at 100 μg/kg/min starting 30 minutes prior to injection of Ex. #859 (50 mg/kg, i.v.) and continued for the duration of the study. In a third group of SHR (n=6) Ex. #859 (50 mg/kg, i.v.) was administered alone. In a final group of SHR (n=6) vehicle (0.9% NaCl) was administered. SHR were allowed 60 minutes for stabilization after surgery. After the stabilization period, 15 minutes of control mean arterial pressure and renal blood flow were obtained. Mean arterial pressure and renal blood flow were recorded for one hour.

[1] = test system: DOCA hypertensive micropigs; assay: Assay XIV: chronic in vivo effects in DOCA hypertensive micropigs; set-up: species or system micropig; details: for Mean arterial pressure: 5 mg/kg/hr infusion
Procedure: This study examines the efficacy of Ex. #859 in deoxycorticosterone acetate ([…]) hypertensive micropigs (Charles River; 6 months of age). Micropigs were made hypertensive by implanting subcutaneously DOCA strips (100 mg/kg) under isoflurane anesthesia. Hypertension stabilizes after one month. Mean arterial pressure was measured using a Gould chart recorder and Statham P23dB transducers. After one month Ex. #859 conjugate was infused for three days at 5 mg/kg/hr).

anesthetized dog = assay: Assay XI: intrarenal administration of fusaric acid in anesthetized dogs (MAP, RBF, UNaV); assay type: in vivo
[2] = 7 mg/kg, 1 hour after injection
[3] = 7 mg/kg, 2 hour after injection
[4] = 7 mg/kg, 3 hour after injection
[5] = 20 mg/kg i.v., 1 hour after injection
[6] = 20 mg/kg i.v., 2 hour after injection
[7] = 20 mg/kg i.v., 3 hour after injection
[8] = 60 mg/kg i.v., 1 hour after injection
[9] = 60 mg/kg i.v., 2 hour after injection
[10] = 60 mg/kg i.v., 3 hour after injection
[11] = Dog #1, intrarenal infusion 1.25 mg/kg/min
[12] = Dog #2, intrarenal infusion 0.75 mg/kg/min
[13] = anesthetized dog, bolus intrarenal 0.5, 1.0 and 5.0 mg/kg

`CCCCc1ccc(C(=O)NNC(=O)CCC(NC(C)=O)C(=O)O)nc1` [Ex. #859, N-acetyl-L-glutamic acid, 5-[(5-butyl-2-pyridinyl)-carbonyl]hydrazide] was tested, and the “Mean arterial pressure” value (Male mongrel dogs; [2]) was 116 ± 5 mmHg, the “Renal Blood Flow” value (Male mongrel dogs; [2]) was 92 ± 5 mL/min and the “Mean arterial pressure” value (Male mongrel dogs; [3]) was 113 ± 4 mmHg. The “Renal Blood Flow” value (Male mongrel dogs; [3]) was 111 ± 14 mL/min, the “Mean arterial pressure” value (Male mongrel dogs; [4]) was 114 ± 4 mmHg and the “Renal Blood Flow” value (Male mongrel dogs; [4]) was 118 ± 23 mL/min. The “Mean arterial pressure” value (Male mongrel dogs; 7 mg/kg, time zero) was 114 ± 6 mmHg, the “Renal Blood Flow” value (Male mongrel dogs; 7 mg/kg, time zero) was 92 ± 5 mL/min and the “Mean arterial pressure” value (Male mongrel dogs; [5]) was 124 ± 2 mmHg. The “Renal Blood Flow” value (Male mongrel dogs; [5]) was 107 ± 14 mL/min, the “Mean arterial pressure” value (Male mongrel dogs; [6]) was 125 ± 3 mmHg and the “Renal Blood Flow” value (Male mongrel dogs; [6]) was 122 ± 20 mL/min. For the same compound, the “Mean arterial pressure” value (Male mongrel dogs; [7]) was 125 ± 4 mmHg, the “Renal Blood Flow” value (Male mongrel dogs; [7]) was 126 ± 24 mL/min and the “Mean arterial pressure” value (Male mongrel dogs; 20 mg/kg i.v., time zero) was 120 ± 3 mmHg. The “Renal Blood Flow” value (Male mongrel dogs; 20 mg/kg i.v., time zero) was 88 ± 11 mL/min, the “Mean arterial pressure” value (Male mongrel dogs; [8]) was 124 ± 1 mmHg and the “Renal Blood Flow” value (Male mongrel dogs; [8]) was 145 ± 21 mL/min. For the same compound, the “Mean arterial pressure” value (Male mongrel dogs; [9]) was 126 ± 3 mmHg, the “Renal Blood Flow” value (Male mongrel dogs; [9]) was 168 ± 28 mL/min and the “Mean arterial pressure” value (Male mongrel dogs; [10]) was 120 ± 4 mmHg. The “Renal Blood Flow” value (Male mongrel dogs; [10]) was 176 ± 32 mL/min, the “Mean arterial pressure” value (Male mongrel dogs; 60 mg/kg i.v., time zero) was 123 ± 3 mmHg and the “Renal Blood Flow” value (Male mongrel dogs; 60 mg/kg i.v., time zero) was 131 ± 21 mL/min. The “effect on renal blood flow” value (male SHR; anesthetized SHR, 50 mg/kg i.v. after surgical renal denervation) was “not changed”, the “effect on renal blood flow” value (male SHR; anesthetized SHR, 50 mg/kg i.v. alone, 60 minutes after injection) was “increased” and the “effect on renal blood flow” value (male SHR; anesthetized SHR, 50 mg/kg i.v. during bulbocapnine infusion (100 μg/kg/min)) was “not changed”. The “effect on mean arterial pressure” value (male SHR; anesthetized SHR, 50 mg/kg i.v., all groups) was “not changed”, the “Mean arterial pressure” value (male SHR; time 0 minutes) was 149 ± 8 mmHg and the “Renal Blood Flow” value (male SHR; time 0 minutes) was 7 ± 2 mL/min. The “Mean arterial pressure” value (male SHR; time 60 minutes) was 149 ± 7 mmHg, the “Renal Blood Flow” value (male SHR; time 60 minutes) was 12 ± 2 mL/min and the “Mean arterial pressure” value ([1]; Day 1) was 151 ± 4. The “Mean arterial pressure” value ([1]; Day 2) was 132 ± 4, the “Mean arterial pressure” value ([1]; Day 3) was 119 ± 3 and the “effect on mean arterial pressure” value ([1]; conscious DOCA hypertensive micropigs, infusion 5 mg/kg/hr for three days) was “normalized mean arterial pressure”.
With `CCCCc1ccc(C(=O)O)nc1` [Fusaric Acid, 5-n-butylpicolinic acid] the MAP (anesthetized dog; [11]) was 136 mm Hg, the “UNa V” value (anesthetized dog; [11]) was 82 μEqlmin and the “Δ RBF” value (anesthetized dog; [11]) was 240 mL/min. For the same compound, the MAP (anesthetized dog; [12]) was 148 mm Hg, the “UNa V” value (anesthetized dog; [12]) was 13 μEqlmin and the “Δ RBF” value (anesthetized dog; [12]) was 315 mL/min. For the same compound, the “effect on mean arterial pressure” value (anesthetized dog; [13]) was “no significant effect”, the “effect on renal blood flow” value (anesthetized dog; [13]) was “dose-related increases” and the “effect on urinary sodium excretion” value (anesthetized dog; [13]) was “no significant effect”. For the same compound, the “effect on MAP, RBF and UNaV” value (anesthetized dog; anesthetized dog, bolus intrarenal injection 0.1 mg/kg) was “no effect on any measure”, the MAP (anesthetized dog; intrarenal bolus 0.1 mg/kg) was 136 mm Hg and the “UNa V” value (anesthetized dog; intrarenal bolus 0.1 mg/kg) was 21.2 μEq/min. For the same compound, the “Δ RBF” value (anesthetized dog; intrarenal bolus 0.1 mg/kg) was 0 mL/min, the MAP (anesthetized dog; intrarenal bolus 0.5 mg/kg) was 136 mm Hg and the “UNa V” value (anesthetized dog; intrarenal bolus 0.5 mg/kg) was 23.8 μEq/min. For the same compound, the “Δ RBF” value (anesthetized dog; intrarenal bolus 0.5 mg/kg) was “+46 ml/min”, the MAP (anesthetized dog; intrarenal bolus 1.0 mg/kg) was 138 mm Hg and the “UNa V” value (anesthetized dog; intrarenal bolus 1.0 mg/kg) was 21.1 μEq/min. For the same compound, the “Δ RBF” value (anesthetized dog; intrarenal bolus 1.0 mg/kg) was “+58 ml/min”, the MAP (anesthetized dog; intrarenal bolus 5.0 mg/kg) was 140 mm Hg and the “UNa V” value (anesthetized dog; intrarenal bolus 5.0 mg/kg) was 34.8 μEq/min. For the same compound, the “Δ RBF” value (anesthetized dog; intrarenal bolus 5.0 mg/kg) was “+132 ml/min”.
